Laboratory results taken from the NIST ThermoML archive (doi:10.1016/j.tca.2012.08.009).

What was measured:
[1] = 298.15 K, 101 kPa, Liquid; for viscosity: Capillary tube (Ostwald / Ubbelohde) method; for speed of sound: Linear variable-path acoustic interferometer; for mass density: Vibrating tube method
[2] = refractive index (Na D-line) (dimensionless); conditions: 298.15 K; 101.33 kPa; Liquid; Standard Abbe refractometry
[3] = wn = mass fraction of the nth substance listed; conditions: 298.15 K, 101 kPa, Liquid; for viscosity: Capillary tube (Ostwald / Ubbelohde) method; for speed of sound: Linear variable-path acoustic interferometer; for mass density: Vibrating tube method
[4] = refractive index (Na D-line) (dimensionless); wn = mass fraction of the nth substance listed; conditions: 298.15 K, 101 kPa, Liquid, Standard Abbe refractometry
[5] = cn = amount concentration of the nth substance listed, in mol/dm3; conditions: 298.15 K, 101 kPa, Liquid; for molar conductivity: Alternating current cell with electrodes; for viscosity: Capillary tube (Ostwald / Ubbelohde) method; for speed of sound: Linear variable-path acoustic interferometer; for mass density: Vibrating tube method
[6] = refractive index (Na D-line) (dimensionless); cn = amount concentration of the nth substance listed, in mol/dm3; conditions: 298.15 K, 101 kPa, Liquid, Standard Abbe refractometry

C1COCO1 [1,3-dioxolane]
Conditions | mass density [kg/m3] | refractive index | speed of sound [m/s] | viscosity [mPa·s]
[1] | 1058.72 | – | 1338.9 | 0.597
[2] | – | 1.3974 | – | –

C1COCO1 [1,3-dioxolane] + CC#N
Conditions | mass density, [3] [kg/m3] | refractive index, [4] | speed of sound, [3] [m/s] | viscosity, [3] [mPa·s]
w2 = 0 | 1058.72 | 1.3974 | 1338.9 | 0.597
w2 = 0.25 | 979.95 | 1.3835 | 1324.6 | 0.533
w2 = 0.5 | 909.57 | 1.3696 | 1310.2 | 0.471
w2 = 0.75 | 841.47 | 1.3557 | 1295.8 | 0.407

CC#N [acetonitrile]
Conditions | mass density [kg/m3] | refractive index | speed of sound [m/s] | viscosity [mPa·s]
[1] | 776.74 | – | 1281.5 | 0.343
[2] | – | 1.3418 | – | –

CC#N [acetonitrile] + C1COCO1
w1 = 1
Conditions | mass density [kg/m3] | refractive index | speed of sound [m/s] | viscosity [mPa·s]
[3] | 776.74 | – | 1281.5 | 0.343
[4] | – | 1.3418 | – | –

[Br-].[Li+] [lithium bromide] + C1COCO1
Conditions | mass density [kg/m3] | molar conductivity [S·m2/mol] | refractive index | speed of sound [m/s] | viscosity [mPa·s]
[5], c1 = 2.686e-05 | – | 0.002392 | – | – | –
[5], c1 = 3.525e-05 | – | 0.002226 | – | – | –
[5], c1 = 4.178e-05 | – | 0.002164 | – | – | –
[5], c1 = 4.7e-05 | – | 0.002136 | – | – | –
[5], c1 = 5.127e-05 | – | 0.002128 | – | – | –
[5], c1 = 5.483e-05 | – | 0.002127 | – | – | –
[5], c1 = 5.868e-05 | – | 0.002129 | – | – | –
[5], c1 = 6.267e-05 | – | 0.002145 | – | – | –
[5], c1 = 6.635e-05 | – | 0.002167 | – | – | –
[5], c1 = 7.115e-05 | – | 0.002199 | – | – | –
[5], c1 = 7.52e-05 | – | 0.002233 | – | – | –
[5], c1 = 7.917e-05 | – | 0.002272 | – | – | –
[5], c1 = 0.0142 | 1058.79 | – | – | 1347.4 | 0.599
[5], c1 = 0.0284 | 1059 | – | – | 1366.8 | 0.603
[5], c1 = 0.0426 | 1059.29 | – | – | 1394.6 | 0.607
[5], c1 = 0.0569 | 1059.65 | – | – | 1430.9 | 0.612
[5], c1 = 0.0712 | 1060.05 | – | – | 1475.6 | 0.617
[5], c1 = 0.0855 | 1060.52 | – | – | 1531.8 | 0.622
[6], c1 = 0.0142 | – | – | 1.3984 | – | –
[6], c1 = 0.0284 | – | – | 1.3993 | – | –
[6], c1 = 0.0426 | – | – | 1.4001 | – | –
[6], c1 = 0.0569 | – | – | 1.4008 | – | –
[6], c1 = 0.0712 | – | – | 1.4014 | – | –
[6], c1 = 0.0855 | – | – | 1.402 | – | –
